# Test results from patent publication EP2208498B1, “PHARMACEUTICAL COMPOSITION COMBINING VARIOUS VENOTONIC AND VASOPROTECTIVE AGENTS FOR THE TREATMENT OF CHRONIC VENOUS INSUFFICIENCY” (priority 2007, dated 2009).
# Assays:
# [1] = test system: patients with chronic venous insufficiency
# Experimental: A randomized, comparative clinical study was carried out wherein 150 patients with chronic venous insufficiency were included.
# All patients were firstly treated with conventional therapy, combining compression with pharmacological treatment.
# A full clinical history with physical examination was prepared for the patients, being assessed with Echo Doppler and CEAP classification, see Table 1.
# [2] = test system: haemorrhoidal crises; conditions: 25 patients 1 500 mg per day calcium dobesilate; 26 patients 3000 mg per day flavonoid fraction of diosmine; cited from earlier work
# [3] = cited from earlier work
# [4] = Final symptomatology data after two months of treatment, n=50 per group, initial 100%
smiles,measurement,setting,value
"O=S(=O)(O)c1cc(O)ccc1O [calcium dobesilate, Calcium dobesilate]",Itch,"[1]; Final symptomatology data after two months of treatment, n=50 per group, initial 80-88%",0
same,Cramps,[1]; [4],0
same,Heaviness,[1]; [4],0
same,Limb pain,[1]; [4],0
same,Doppler,"[1]; Final symptomatology data after two months of treatment, n=50 per group, initial >9",<9
same,reported side effects such as: head ache and tiredness sensation,"[1]; human, in vivo",14 patients
same,improvement in haemorrhoidal crises (in words),[2],significant improvement
same,plasma peak,[3]; after oral administration,8 µg/mL
same,time of plasma peak,[3]; after oral administration,around 6 hours
same,Plasma half-life,[3]; in vivo,about 5 hours
same,administered dose removed in feces,[3]; remaining dose,50%
same,administered dose removed in urine,[3]; within the first 24 hours,50%
